# Measurements published in PubChem BioAssay (NCI).
#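 Compound exposure: 48 hours, 5 concentrations, 96-well plates. GI50 = concentration required for 50% inhibition of growth. The concentration for full growth arrest is given as TGI.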
# Legend:
# Test in all cases: NCI anticancer screen, dose series, 48 h
# 786-0 renal = tested on: 786-0 renal
# HCC-2998 colon = tested on: HCC-2998 colon
# SK-OV-3 ovarian = tested on: SK-OV-3 ovarian
# MCF7 breast = tested on: MCF7 breast
# MDA-MB-231 breast = tested on: MDA-MB-231 breast
# NCI-H23 lung = tested on: NCI-H23 lung
# UO-31 renal = tested on: UO-31 renal
# OVCAR-4 ovarian = tested on: OVCAR-4 ovarian
# SW-620 colon = tested on: SW-620 colon
# SK-MEL-28 melanoma = tested on: SK-MEL-28 melanoma
# A549 NSCLC = tested on: A549 NSCLC
# KM12 colon = tested on: KM12 colon
# UACC-257 melanoma = tested on: UACC-257 melanoma
# SNB-19 CNS = tested on: SNB-19 CNS
# U251 CNS = tested on: U251 CNS
# HCT-15 colon = tested on: HCT-15 colon
# SK-MEL-2 melanoma = tested on: SK-MEL-2 melanoma
# M14 melanoma = tested on: M14 melanoma
# CAKI-1 renal = tested on: CAKI-1 renal
# A498 renal = tested on: A498 renal
# PC-3 prostate = tested on: PC-3 prostate
# DU-145 prostate = tested on: DU-145 prostate
# MDA-MB-435 = tested on: MDA-MB-435
# MOLT-4 leukemia = tested on: MOLT-4 leukemia
# TK-10 renal = tested on: TK-10 renal
# ACHN renal = tested on: ACHN renal
# RXF 393 renal = tested on: RXF 393 renal
# NCI-H522 lung = tested on: NCI-H522 lung
# SR leukemia = tested on: SR leukemia
# SNB-75 CNS = tested on: SNB-75 CNS
# HT29 colon = tested on: HT29 colon
# RPMI-8226 leukemia = tested on: RPMI-8226 leukemia
# HOP-92 NSCLC = tested on: HOP-92 NSCLC
# UACC-62 melanoma = tested on: UACC-62 melanoma
# MALME-3M melanoma = tested on: MALME-3M melanoma
# SN12C renal = tested on: SN12C renal
# CCRF-CEM leukemia = tested on: CCRF-CEM leukemia
# HOP-62 NSCLC = tested on: HOP-62 NSCLC
# MDA-MB-468 breast = tested on: MDA-MB-468 breast
# OVCAR-3 ovarian = tested on: OVCAR-3 ovarian
# SF-539 CNS = tested on: SF-539 CNS
# EKVX NSCLC = tested on: EKVX NSCLC
# K-562 leukemia = tested on: K-562 leukemia
# COLO 205 colon = tested on: COLO 205 colon
# SF-268 CNS = tested on: SF-268 CNS
# NCI-H460 lung = tested on: NCI-H460 lung
# LOX IMVI melanoma = tested on: LOX IMVI melanoma
# BT-549 breast = tested on: BT-549 breast
# T-47D breast = tested on: T-47D breast
# SK-MEL-5 melanoma = tested on: SK-MEL-5 melanoma
# HCT-116 colon = tested on: HCT-116 colon
# NCI-H226 lung = tested on: NCI-H226 lung
# OVCAR-5 ovarian = tested on: OVCAR-5 ovarian
# IGROV1 ovarian = tested on: IGROV1 ovarian
# SF-295 CNS = tested on: SF-295 CNS
# HS 578T breast = tested on: HS 578T breast
smiles,measurement,setting,value
CN(C)c1ccnc(CNCCSC2(c3ccccc3)c3ccccc3C=Cc3ccccc32)c1,GI50,786-0 renal,1.62 µM
same,TGI,786-0 renal,3.98 µM
same,GI50,HCC-2998 colon,1.41 µM
same,TGI,HCC-2998 colon,2.98 µM
same,GI50,SK-OV-3 ovarian,2.8 µM
same,TGI,SK-OV-3 ovarian,9.04 µM
same,GI50,MCF7 breast,0.419 µM
same,TGI,MCF7 breast,2.39 µM
same,GI50,MDA-MB-231 breast,1.46 µM
same,TGI,MDA-MB-231 breast,3.63 µM
same,GI50,NCI-H23 lung,2.57 µM
same,TGI,NCI-H23 lung,7.46 µM
same,GI50,UO-31 renal,2.16 µM
same,TGI,UO-31 renal,11.4 µM
same,GI50,OVCAR-4 ovarian,3.56 µM
same,TGI,OVCAR-4 ovarian,16 µM
same,GI50,SW-620 colon,0.579 µM
same,TGI,SW-620 colon,2.26 µM
same,GI50,SK-MEL-28 melanoma,2.02 µM
same,TGI,SK-MEL-28 melanoma,4.11 µM
same,GI50,A549 NSCLC,0.556 µM
same,TGI,A549 NSCLC,5.83 µM
same,GI50,KM12 colon,1.44 µM
same,TGI,KM12 colon,3.24 µM
same,GI50,UACC-257 melanoma,1.79 µM
same,TGI,UACC-257 melanoma,4.18 µM
same,GI50,SNB-19 CNS,3.75 µM
same,TGI,SNB-19 CNS,15.2 µM
same,GI50,U251 CNS,0.38 µM
same,TGI,U251 CNS,1.6 µM
same,GI50,HCT-15 colon,0.52 µM
same,TGI,HCT-15 colon,11.4 µM
same,GI50,SK-MEL-2 melanoma,2.2 µM
same,TGI,SK-MEL-2 melanoma,4.89 µM
same,GI50,M14 melanoma,0.71 µM
same,TGI,M14 melanoma,2.5 µM
same,GI50,CAKI-1 renal,2.29 µM
same,TGI,CAKI-1 renal,12.3 µM
same,GI50,A498 renal,9.97 µM
same,TGI,A498 renal,25.3 µM
same,GI50,PC-3 prostate,1.31 µM
same,TGI,PC-3 prostate,6.91 µM
same,GI50,DU-145 prostate,2.85 µM
same,TGI,DU-145 prostate,8.11 µM
same,GI50,MDA-MB-435,0.215 µM
same,TGI,MDA-MB-435,0.495 µM
same,GI50,MOLT-4 leukemia,2.49 µM
same,TGI,MOLT-4 leukemia,12.4 µM
same,GI50,TK-10 renal,3.09 µM
same,TGI,TK-10 renal,14.8 µM
same,GI50,ACHN renal,1.44 µM
same,TGI,ACHN renal,12.2 µM
same,GI50,RXF 393 renal,1.25 µM
same,TGI,RXF 393 renal,4.5 µM
same,GI50,NCI-H522 lung,1.4 µM
same,TGI,NCI-H522 lung,3.36 µM
same,GI50,SR leukemia,0.798 µM
same,TGI,SR leukemia,5.04 µM
same,GI50,SNB-75 CNS,1.56 µM
same,TGI,SNB-75 CNS,6.29 µM
same,GI50,HT29 colon,1.69 µM
same,TGI,HT29 colon,3.92 µM
same,GI50,RPMI-8226 leukemia,1.62 µM
same,TGI,RPMI-8226 leukemia,5.44 µM
same,GI50,HOP-92 NSCLC,1.25 µM
same,TGI,HOP-92 NSCLC,5.18 µM
same,GI50,UACC-62 melanoma,2.17 µM
same,TGI,UACC-62 melanoma,5.39 µM
same,GI50,MALME-3M melanoma,1.54 µM
same,TGI,MALME-3M melanoma,3.16 µM
same,GI50,SN12C renal,1.39 µM
same,TGI,SN12C renal,6.53 µM
same,GI50,CCRF-CEM leukemia,0.681 µM
same,TGI,CCRF-CEM leukemia,11.9 µM
same,GI50,HOP-62 NSCLC,2.16 µM
same,TGI,HOP-62 NSCLC,8.1 µM
same,GI50,MDA-MB-468 breast,0.46 µM
same,TGI,MDA-MB-468 breast,2.06 µM
same,GI50,OVCAR-3 ovarian,1.73 µM
same,TGI,OVCAR-3 ovarian,4.87 µM
same,GI50,SF-539 CNS,1.47 µM
same,TGI,SF-539 CNS,2.83 µM
same,GI50,EKVX NSCLC,2.44 µM
same,TGI,EKVX NSCLC,13.9 µM
same,GI50,K-562 leukemia,0.38 µM
same,TGI,K-562 leukemia,> 100 µM
same,GI50,COLO 205 colon,1.61 µM
same,TGI,COLO 205 colon,3.11 µM
same,GI50,SF-268 CNS,1.86 µM
same,TGI,SF-268 CNS,7.62 µM
same,GI50,NCI-H460 lung,1.61 µM
same,TGI,NCI-H460 lung,3.13 µM
same,GI50,LOX IMVI melanoma,1.43 µM
same,TGI,LOX IMVI melanoma,2.77 µM
same,GI50,BT-549 breast,1.91 µM
same,TGI,BT-549 breast,5 µM
same,GI50,T-47D breast,2.48 µM
same,TGI,T-47D breast,9.26 µM
same,GI50,SK-MEL-5 melanoma,1.46 µM
same,TGI,SK-MEL-5 melanoma,2.78 µM
same,GI50,HCT-116 colon,0.526 µM
same,TGI,HCT-116 colon,2.1 µM
same,GI50,NCI-H226 lung,2.46 µM
same,TGI,NCI-H226 lung,8.8 µM
same,GI50,OVCAR-5 ovarian,2.45 µM
same,TGI,OVCAR-5 ovarian,7.64 µM
same,GI50,IGROV1 ovarian,2.94 µM
same,TGI,IGROV1 ovarian,17.1 µM
same,GI50,SF-295 CNS,1.8 µM
same,TGI,SF-295 CNS,5.18 µM
same,GI50,HS 578T breast,1.99 µM
same,TGI,HS 578T breast,5.92 µM
